Reference: patent US9066518B2, “Heterocyclic compounds as pesticides” (Bayer CropScience AG, priority 2009, dated 2015)

Assays:
[1] = test system: green peach aphid (Myzus persicae); assay: Myzus test (spray treatment); type: in vivo; conditions: foliar, 144 h, after 6 days, Chinese cabbage leaf discs, read-out: activity (effect in %, aphids killed); for pest or weed control at 500 g/ha: application rate 500 g/ha
Experimental: Solvents: 78 parts by weight of acetone
• 1.5 parts by weight of dimethylformamide Emulsifier 0.5 part by weight of alkylaryl polyglycol ether
To produce a suitable preparation of active compound, 1 part by weight of active compound is mixed with the stated amounts of solvents and emulsifier, and the concentrate is diluted with emulsifier-containing water to the desired concentration. Discs of leaves of Chinese cabbage (Brassica pekinensis) which are infested by all stages of the green peach aphid (Myzus persicae) are sprayed with an active compound preparation of the desired concentration.
After 6 days, the effect in % is determined. 100% means that all aphids have been killed; 0% means that none of the aphids has been killed.

[2] = logP determination (neutral / HCOOH); conditions: for chromatographic logP: HCOOH (formic acid)

SMILES | pest or weed control at 500 g/ha [1] | chromatographic logP ([2]; logP (HCOOH), HCOOH) | logP ([2]; logP (neutral), neutral) | pest or weed control at 100 g/ha ([1]; application rate 100 g/ha) | logP (HCOOH) ([2]; HCOOH) | logP ([2]; HCOOH, logP (HCOOH))
CC(F)(F)c1ccc(-c2cnn(-c3cccnc3)c2)nc1 [Example 40] | 90% | 2.04 | – | – | – | –
Clc1cccnc1-n1ccc(-c2cnn(-c3cccnc3)c2)n1 [Example 42] | 100% | 1.81 | – | – | – | –
FC(F)(F)c1ccc(-n2ccc(-c3cnn(-c4cccnc4)c3)n2)nc1 [Example 43] | 90% | 3.22 | – | – | – | –
COc1cc(OC)nc(-c2nccc(-c3cnn(-c4cccnc4)c3)n2)n1 [Example 44] | 100% | 1.56 | – | – | – | –
COC(OC)c1cccc(-c2cnn(-c3cccnc3)c2)n1 [Example 45] | 100% | 1.75 | – | – | – | –
c1cnc(-c2nccc(-c3cnn(-c4cccnc4)c3)n2)nc1 [Example 46] | 100% | 0.86 | – | – | – | –
c1ccc(-c2csc(-c3cnn(-c4cccnc4)c3)n2)nc1 [Example 47] | 100% | 1.55 | – | – | – | –
FC(F)CNc1cccc(-c2cnn(-c3cccnc3)c2)n1 [Example 48] | 100% | 1.52 | – | – | – | –
COCC1(c2cccc(-c3cnn(-c4cccnc4)c3)n2)OCCCO1 [Example 49] | 100% | – | 1.69 | – | – | –
FC(F)(F)c1ccc(-c2cnn(-c3cccnc3)c2)cc1 [Example 50] | 90% | 2.98 | – | – | – | –
Clc1ccc(-c2cnn(-c3cccnc3)c2)cc1 [Example 51] | 90% | 2.71 | – | – | – | –
c1cncc(-n2cc(-c3cccc(-n4nccn4)n3)cn2)c1 [Example 54] | 100% | 1.63 | – | – | – | –
c1cncc(-n2cc(-c3cccc(C4=NOCCO4)n3)cn2)c1 [Example 55] | – | 1.4 | – | 100% | – | –
CS(=O)(=O)c1cccc(-c2cnn(-c3cccnc3)c2)n1 [Example 56] | 100% | 1.31 | – | – | – | –
O=C(NCC(F)(F)F)c1cccc(-c2cnn(-c3cccnc3)c2)n1 [Example 57] | 100% | 2.12 | – | – | – | –
CN1CCOC(c2cccc(-c3cnn(-c4cccnc4)c3)n2)=N1 [Example 58] | 100% | 1.54 | 1.68 | – | – | –
Fc1cncc(-n2cc(-c3cccc(C(F)(F)F)n3)cn2)c1 [Example 59] | 100% | 3.1 | 3.14 | – | – | –
c1cncc(-n2cc(-c3cccc(C4OCC5(CC5)CO4)n3)cn2)c1 [Example 60] | 100% | 1.97 | 2.12 | – | – | –
c1cncc(-n2cc(-c3cccc(-n4ccnn4)n3)cn2)c1 [Example 61] | 90% | 1.68 | – | – | – | –
c1cncc(-n2cc(-c3cccc(-c4noc(C5CC5)n4)n3)cn2)c1 [Example 62] | 100% | 2.16 | – | – | – | –
FC(F)c1cccc(-c2cnn(-c3cccnc3)c2)n1 [Example 63] | 100% | 2.02 | – | – | – | –
c1cncc(-n2cc(-c3cccc(-c4nc[nH]n4)n3)cn2)c1 [Example 64] | 100% | 1.14 | – | – | – | –
ClC1(c2cccc(-c3cnn(-c4cccnc4)c3)n2)CC1 [Example 65] | 90% | 3.22 | – | – | – | –
CC(C)C(F)(F)c1cccc(-c2cnn(-c3cccnc3)c2)n1 [Example 66] | 100% | – | 3.22 | – | – | –
CC(C)C(=O)c1cccc(-c2cnn(-c3cccnc3)c2)n1 [Example 67] | 100% | – | 2.84 | – | – | –
c1cc(-c2cnn(-c3cncnc3)c2)nc(C2OCCCO2)c1 [Example 68] | 100% | 1.51 | 1.56 | – | – | –

SMILES | pest or weed control at 500 g/ha [1] | chromatographic logP ([2]; logP (HCOOH), HCOOH) | logP ([2]; logP (neutral), neutral) | pest or weed control at 100 g/ha ([1]; application rate 100 g/ha) | logP (HCOOH) ([2]; HCOOH) | logP ([2]; HCOOH, logP (HCOOH))
CC1(c2cccc(-c3cnn(-c4cccnc4)c3)n2)OCCCO1 [Example 69] | 100% | 1.78 | – | – | – | –
Cc1nc(-c2cccc(-c3cnn(-c4cccnc4)c3)n2)no1 [Example 70] | 100% | 1.66 | – | – | – | –
CC1CC(C)OC(c2cccc(-c3cnn(-c4cccnc4)c3)n2)O1 (centres unmarked) [Example 71] | 100% | 2.37 | – | – | – | –
CC1OC(c2cccc(-c3cnn(-c4cccnc4)c3)n2)OC1C (centres unmarked) [Example 72] | 100% | 2.13 | – | – | 2.09 | –
Fc1cncc(-n2cc(-c3cccc(C4OCCCO4)n3)cn2)c1 [Example 73] | 100% | 2.12 | 2.13 | – | – | –
FC(F)(F)c1nc(-c2cccc(-c3cnn(-c4cccnc4)c3)n2)no1 [Example 74] | 100% | 2.77 | – | – | – | –
C=C1COC(c2cccc(-c3cnn(-c4cccnc4)c3)n2)OC1 [Example 75] | 100% | 1.9 | – | – | – | –
c1cncc(-n2cc(-c3cccc(-c4ncco4)n3)cn2)c1 [Example 76] | 100% | 1.57 | 1.69 | – | – | –
Cc1ccn(-c2cccc(-c3cnn(-c4cccnc4)c3)n2)n1 [Example 77] | 100% | 2.51 | – | – | – | –
CC(=O)NC(NO)c1cccc(-c2cnn(-c3cccnc3)c2)n1 (centres unmarked) [Example 78] | 100% | 1.49 | – | – | – | –
Cc1cnn(-c2cccc(-c3cnn(-c4cccnc4)c3)n2)c1 [Example 79] | 100% | 2.59 | – | – | – | –
CCOc1cc(OCC)nc(-c2nccc(-c3cnn(-c4cccnc4)c3)n2)n1 [Example 82] | 100% | 2.23 | – | – | – | –
CN(C)C(=O)c1nc(-c2cnn(-c3cccnc3)c2)cs1 [Example 83] | 100% | 1.51 | – | – | – | –
c1cncc(-n2cc(-c3cccc(C4=NCCO4)n3)cn2)c1 [Example 84] | 100% | 0.9 | 1.45 | – | – | –
COCC(=O)c1cccc(-c2cnn(-c3cccnc3)c2)n1 [Example 85, 2-Methoxy-1-[6-(1-pyridin-3-yl-1H-pyrazol-4-yl)pyridin-2-yl]ethanone] | 100% | – | – | – | – | 1.66
Nc1cccc(-c2cnn(-c3cccnc3)c2)n1 [Example 86] | 100% | 0.29 | 1.3 | – | – | –
O=C(NCC(F)(F)F)c1ccc(-c2cnn(-c3cccnc3)c2)nc1 [Example 87] | 90% | 1.53 | 1.69 | – | – | –
N#Cc1cncc(-n2cc(-c3cccc(-c4ncccn4)n3)cn2)c1 [Example 88] | 100% | 1.91 | – | – | – | –
O=c1ccccn1-c1cccc(-c2cnn(-c3cccnc3)c2)n1 [Example 89] | 100% | 1.37 | – | – | – | –
c1cncc(-n2cc(-c3cccc(C4OCC5(CCC5)O4)n3)cn2)c1 (centres unmarked) [Example 90] | 100% | 2.37 | 2.53 | – | – | –
COC(=N)c1cccc(-c2cnn(-c3cccnc3)c2)n1 [Example 91] | 100% | 0.84 | – | – | – | –
COCC(F)c1cccc(-c2cnn(-c3cccnc3)c2)n1 (centres unmarked) [Example 92] | 90% | – | 1.98 | – | – | –
c1cnc(-c2ccnn2-c2cnn(-c3cccnc3)c2)nc1 [Example 93] | 100% | 1.16 | – | – | – | –
CC(=O)Nc1cccc(-c2cnn(-c3cccnc3)c2)n1 [Example 94] | 100% | 1.31 | – | – | – | –
c1cncc(-n2cc(-c3nccs3)cn2)c1 [Example 95] | 90% | 1.32 | – | – | – | –
c1cncc(-n2cc(-c3cccc(-c4nnn[nH]4)n3)cn2)c1 [Example 96] | 90% | 1.36 | 0.32 | – | – | –
